Active and inactive are the calls of the source.
Assays:
[1] = target: T1, Replicative DNA helicase DnaB (Mycobacterium tuberculosis, UniProt P9WMR3); assay: DnaB intein splicing inhibitors, dose response, biochemical, cell-free fluorescence (AID 449749); type: functional
T1 sequence (P9WMR3 whole entry): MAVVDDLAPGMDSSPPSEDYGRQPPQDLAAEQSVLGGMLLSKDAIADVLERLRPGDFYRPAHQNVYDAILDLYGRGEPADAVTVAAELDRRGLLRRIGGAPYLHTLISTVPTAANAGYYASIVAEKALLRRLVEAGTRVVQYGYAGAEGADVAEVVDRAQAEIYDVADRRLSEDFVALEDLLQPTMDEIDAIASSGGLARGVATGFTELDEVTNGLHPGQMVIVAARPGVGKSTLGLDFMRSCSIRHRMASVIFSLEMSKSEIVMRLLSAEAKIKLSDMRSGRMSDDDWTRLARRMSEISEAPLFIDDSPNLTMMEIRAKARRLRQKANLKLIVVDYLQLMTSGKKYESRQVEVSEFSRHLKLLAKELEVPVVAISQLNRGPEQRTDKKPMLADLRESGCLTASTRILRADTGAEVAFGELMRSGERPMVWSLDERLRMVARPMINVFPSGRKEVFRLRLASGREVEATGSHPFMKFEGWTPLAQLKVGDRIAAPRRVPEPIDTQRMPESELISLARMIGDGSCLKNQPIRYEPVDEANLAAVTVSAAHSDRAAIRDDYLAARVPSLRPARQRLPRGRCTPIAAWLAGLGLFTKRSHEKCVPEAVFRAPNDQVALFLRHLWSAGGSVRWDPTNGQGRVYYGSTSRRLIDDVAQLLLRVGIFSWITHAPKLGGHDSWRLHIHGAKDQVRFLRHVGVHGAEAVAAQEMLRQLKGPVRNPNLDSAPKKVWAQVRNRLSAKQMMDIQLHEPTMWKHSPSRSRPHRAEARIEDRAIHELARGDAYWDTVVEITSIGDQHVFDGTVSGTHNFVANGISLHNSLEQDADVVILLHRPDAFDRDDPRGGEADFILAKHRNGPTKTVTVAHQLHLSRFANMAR

[2] = target: Sphingosine 1-phosphate receptor 1 (Homo sapiens, UniProt P21453); type: functional;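 also: Tango beta-arrestin reporter U2OS cells stimulated with S1P near its EC80; inhibitor potency meaning antagonism of receptor activation by the natural agonist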
Sequence of Sphingosine 1-phosphate receptor 1 (P21453 whole entry): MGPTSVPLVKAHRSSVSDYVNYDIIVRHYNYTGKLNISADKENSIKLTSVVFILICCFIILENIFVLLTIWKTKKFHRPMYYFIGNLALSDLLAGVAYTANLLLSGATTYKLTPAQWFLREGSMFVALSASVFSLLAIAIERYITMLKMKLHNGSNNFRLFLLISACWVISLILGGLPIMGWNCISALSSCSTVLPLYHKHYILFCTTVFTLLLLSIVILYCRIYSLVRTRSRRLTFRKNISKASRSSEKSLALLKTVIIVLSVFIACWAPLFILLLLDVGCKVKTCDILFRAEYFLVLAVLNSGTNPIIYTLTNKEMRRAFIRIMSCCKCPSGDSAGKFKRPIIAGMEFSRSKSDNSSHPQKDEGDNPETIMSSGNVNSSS

cells = type: functional, cell-based
[3] = NIH-3T3 fibroblast cytotoxicity, dose response, cytotoxicity control, cell-based, fluorescence, Alamar Blue, secondary assay (AID 2327); type: functional;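 also: NIH-3T3 mouse fibroblasts cultured with fluconazole at 8 µg/mL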
[4] = target: ATP-dependent molecular chaperone HSP82 (Candida albicans (strain WO-1) (Yeast), UniProt C4YTQ8); assay: loss of DOC-induced GRE-beta-galactosidase reporter signal, dose response, Hsp90 inhibitor project, S. cerevisiae, luminescence (AID 2400); type: functional, cell-based;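 also: beta-galactosidase luminescence from glucocorticoid response element reporter as proxy for Hsp90 function; inhibitor potency where signal loss means Hsp90 inhibition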
Sequence of ATP-dependent molecular chaperone HSP82 (C4YTQ8 whole entry): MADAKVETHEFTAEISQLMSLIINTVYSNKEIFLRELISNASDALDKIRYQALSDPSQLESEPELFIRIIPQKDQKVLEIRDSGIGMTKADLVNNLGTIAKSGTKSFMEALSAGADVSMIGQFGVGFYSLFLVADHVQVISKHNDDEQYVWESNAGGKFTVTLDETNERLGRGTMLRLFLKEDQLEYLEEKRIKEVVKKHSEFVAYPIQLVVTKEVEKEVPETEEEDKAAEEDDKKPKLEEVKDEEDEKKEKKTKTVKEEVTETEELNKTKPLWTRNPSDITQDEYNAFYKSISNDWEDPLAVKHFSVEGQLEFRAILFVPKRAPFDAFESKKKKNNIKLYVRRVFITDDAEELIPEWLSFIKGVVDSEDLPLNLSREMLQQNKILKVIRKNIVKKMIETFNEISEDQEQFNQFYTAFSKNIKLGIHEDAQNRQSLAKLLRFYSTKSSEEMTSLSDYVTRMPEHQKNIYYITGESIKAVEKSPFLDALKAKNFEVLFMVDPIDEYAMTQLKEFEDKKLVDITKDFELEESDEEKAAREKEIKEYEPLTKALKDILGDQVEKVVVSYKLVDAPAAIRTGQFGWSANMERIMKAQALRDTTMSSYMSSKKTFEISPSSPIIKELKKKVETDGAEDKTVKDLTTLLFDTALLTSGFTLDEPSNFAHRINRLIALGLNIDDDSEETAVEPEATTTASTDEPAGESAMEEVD

[5] = target: T2, Apoptotic protease-activating factor 1 (Homo sapiens, UniProt O14727); type: functional
T2 sequence (O14727 whole entry): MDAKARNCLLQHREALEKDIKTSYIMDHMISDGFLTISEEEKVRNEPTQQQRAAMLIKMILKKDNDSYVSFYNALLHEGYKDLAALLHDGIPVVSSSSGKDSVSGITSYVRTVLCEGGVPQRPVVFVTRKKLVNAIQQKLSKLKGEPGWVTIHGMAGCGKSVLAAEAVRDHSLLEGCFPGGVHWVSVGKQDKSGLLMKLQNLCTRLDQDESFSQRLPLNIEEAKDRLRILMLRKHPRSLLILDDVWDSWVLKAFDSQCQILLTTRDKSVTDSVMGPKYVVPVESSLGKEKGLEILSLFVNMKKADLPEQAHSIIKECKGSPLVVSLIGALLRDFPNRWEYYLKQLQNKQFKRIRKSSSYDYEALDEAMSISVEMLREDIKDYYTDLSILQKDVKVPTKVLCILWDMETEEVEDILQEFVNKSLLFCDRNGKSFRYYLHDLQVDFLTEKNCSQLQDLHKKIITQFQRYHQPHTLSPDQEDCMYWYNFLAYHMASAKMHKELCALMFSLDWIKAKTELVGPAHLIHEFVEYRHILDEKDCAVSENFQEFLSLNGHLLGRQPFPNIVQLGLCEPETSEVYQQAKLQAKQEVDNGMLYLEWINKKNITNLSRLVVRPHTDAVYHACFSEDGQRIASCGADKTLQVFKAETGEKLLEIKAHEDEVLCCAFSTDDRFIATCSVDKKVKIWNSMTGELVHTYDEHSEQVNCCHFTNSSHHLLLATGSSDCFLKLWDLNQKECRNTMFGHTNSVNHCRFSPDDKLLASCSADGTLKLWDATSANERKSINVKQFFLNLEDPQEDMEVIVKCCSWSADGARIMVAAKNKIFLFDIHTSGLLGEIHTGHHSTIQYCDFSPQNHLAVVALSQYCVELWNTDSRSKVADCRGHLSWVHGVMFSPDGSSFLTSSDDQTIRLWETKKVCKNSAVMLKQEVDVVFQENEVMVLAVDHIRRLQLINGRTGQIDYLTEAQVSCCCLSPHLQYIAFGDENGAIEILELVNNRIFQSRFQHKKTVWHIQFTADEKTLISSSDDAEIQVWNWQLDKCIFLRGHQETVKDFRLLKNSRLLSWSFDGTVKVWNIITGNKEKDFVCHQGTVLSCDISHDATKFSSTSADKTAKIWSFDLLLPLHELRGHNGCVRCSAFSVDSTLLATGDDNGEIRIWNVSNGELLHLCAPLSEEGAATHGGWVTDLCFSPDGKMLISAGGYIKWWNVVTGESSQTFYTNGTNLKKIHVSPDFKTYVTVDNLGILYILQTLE

[6] = target: Serine/threonine-protein phosphatase PP1-alpha catalytic subunit (Homo sapiens, UniProt P62136); assay: PP1 phosphatase inhibitors, dose response, biochemical, fluorescence (AID 2394)
Sequence of Serine/threonine-protein phosphatase PP1-alpha catalytic subunit (P62136 whole entry): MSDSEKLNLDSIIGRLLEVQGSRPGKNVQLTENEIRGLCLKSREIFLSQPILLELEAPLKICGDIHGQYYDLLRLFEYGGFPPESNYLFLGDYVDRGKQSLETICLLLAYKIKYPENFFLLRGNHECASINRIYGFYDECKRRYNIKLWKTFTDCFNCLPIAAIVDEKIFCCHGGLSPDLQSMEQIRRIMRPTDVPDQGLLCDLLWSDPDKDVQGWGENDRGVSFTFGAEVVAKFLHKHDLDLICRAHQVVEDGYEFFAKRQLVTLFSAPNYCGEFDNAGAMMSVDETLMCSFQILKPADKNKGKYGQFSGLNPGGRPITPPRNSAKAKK

For COc1cc(NC(=O)Cn2ncc(Cl)c(Cl)c2=O)c(C)cc1[N+](=O)[O-], the AC50 [1] was 26.6 µM (active) and the IC50 [2] was > 49.8 µM (not active).

With Cc1ccc(C)c(S(=O)(=O)N2CCN(Cc3ccc(O)c4ncccc34)CC2)c1 the EC50 (cells) was > 350 µM (not active), the EC50 [3] was 81.5 µM (active) and the EC50 [4] was > 160 µM (inactive).

For Oc1ccc(/C=N\Nc2cc(N3CCOCC3)nc(N3CCOCC3)n2)c(O)c1, the IC50 [5] was 7.15 µM (active) and the IC50 [6] was > 67 µM (not active).

— ChEMBL document CHEMBL1201862, “PubChem BioAssay data set” (2004)
